Test results from the NIST ThermoML archive (doi:10.1016/j.jct.2015.12.031).

Columns and labels:
[1] = mn = molality of the nth substance listed, in mol/kg; settings: 86.5 kPa, Liquid; for speed of sound: Frequency=3 MHz, Sing-around technique in a fixed-path interferometer; for mass density: Vibrating tube method
[2] = refractive index (Na D-line) (dimensionless); mn = molality of the nth substance listed, in mol/kg; settings: 86.5 kPa, Liquid, Standard Abbe refractometry

CCCCCCCCn1cc[n+](C)c1.[Br-] [1-methyl-3-octylimidazolium bromide] + c1ccsc1
Settings | mass density, [1] [kg/m3] | refractive index, [2] | speed of sound, [1] [m/s]
288.15 K, m2 = 0 | 1179.37 | 1.525 | 1605.2
288.15 K, m2 = 0.0087 | 1179.17 | 1.5248 | 1603.7
288.15 K, m2 = 0.022 | 1178.88 | 1.5245 | 1601.5
288.15 K, m2 = 0.032 | 1178.66 | 1.5242 | 1599.9
288.15 K, m2 = 0.0435 | 1178.43 | 1.524 | 1598.3
288.15 K, m2 = 0.0556 | 1178.18 | 1.5238 | 1596.8
288.15 K, m2 = 0.0663 | 1177.97 | 1.5235 | 1595.7
288.15 K, m2 = 0.0821 | 1177.68 | 1.5232 | 1594.3
288.15 K, m2 = 0.0923 | 1177.49 | 1.5229 | 1593.4
288.15 K, m2 = 0.107 | 1177.22 | 1.5226 | 1592.3
288.15 K, m2 = 0.1464 | 1176.57 | 1.5221 | 1590.2
288.15 K, m2 = 0.1765 | 1176.08 | 1.5216 | 1588.8
293.15 K, m2 = 0 | 1176.17 | 1.5236 | 1581.9
293.15 K, m2 = 0.0087 | 1175.97 | 1.5233 | 1581
293.15 K, m2 = 0.022 | 1175.68 | 1.5231 | 1579.5
293.15 K, m2 = 0.032 | 1175.46 | 1.5228 | 1578.6
293.15 K, m2 = 0.0435 | 1175.23 | 1.5226 | 1577.6
293.15 K, m2 = 0.0556 | 1174.97 | 1.5223 | 1576.5
293.15 K, m2 = 0.0663 | 1174.75 | 1.522 | 1575.7
293.15 K, m2 = 0.0821 | 1174.47 | 1.5217 | 1574.6
293.15 K, m2 = 0.0923 | 1174.27 | 1.5214 | 1573.8
293.15 K, m2 = 0.107 | 1174.01 | 1.5211 | 1572.9
293.15 K, m2 = 0.1464 | 1173.34 | 1.5205 | 1571.1
293.15 K, m2 = 0.1765 | 1172.85 | 1.52 | 1570.2
298.15 K, m2 = 0 | 1172.98 | 1.5221 | 1561.9
298.15 K, m2 = 0.0087 | 1172.78 | 1.5219 | 1561.3
298.15 K, m2 = 0.022 | 1172.48 | 1.5216 | 1560.3
298.15 K, m2 = 0.032 | 1172.27 | 1.5213 | 1559.7
298.15 K, m2 = 0.0435 | 1172.02 | 1.521 | 1558.9
298.15 K, m2 = 0.0556 | 1171.78 | 1.5207 | 1558.2
298.15 K, m2 = 0.0663 | 1171.57 | 1.5203 | 1557.5
298.15 K, m2 = 0.0821 | 1171.26 | 1.52 | 1556.5
298.15 K, m2 = 0.0923 | 1171.07 | 1.5197 | 1555.9
298.15 K, m2 = 0.107 | 1170.8 | 1.5193 | 1555.1
298.15 K, m2 = 0.1464 | 1170.16 | 1.5187 | 1553.5
298.15 K, m2 = 0.1765 | 1169.7 | 1.5181 | 1552.3
303.15 K, m2 = 0 | 1169.86 | 1.5206 | 1542.8
303.15 K, m2 = 0.0087 | 1169.65 | 1.5205 | 1542.3
303.15 K, m2 = 0.022 | 1169.35 | 1.5202 | 1541.6
303.15 K, m2 = 0.032 | 1169.13 | 1.5199 | 1541.1
303.15 K, m2 = 0.0435 | 1168.88 | 1.5196 | 1540.7
303.15 K, m2 = 0.0556 | 1168.64 | 1.5192 | 1540.1
303.15 K, m2 = 0.0663 | 1168.42 | 1.5189 | 1539.6
303.15 K, m2 = 0.0821 | 1168.12 | 1.5185 | 1539.1
303.15 K, m2 = 0.0923 | 1167.93 | 1.5182 | 1538.5
303.15 K, m2 = 0.107 | 1167.67 | 1.5179 | 1538
303.15 K, m2 = 0.1464 | 1167.05 | 1.5171 | 1536.6
303.15 K, m2 = 0.1765 | 1166.59 | 1.5166 | 1535.7
